One series concerns 3T3-L1 adipocytes. Put plainly: Lipogenesis of 3T3-L1 adipocytes. The format is cell-based. The following applies: Mus musculus, TG readout, read-out: LG-3T3 IC50. As to the method:
3T3-L1 fibroblast cells (Zen-Bio) were grown in 96-well culture microplate (Corning) with growth media to around 90-100% confluency. Culture media was changed to differentiation media (growth media supplemented with 3-Isobutyl-1-Methylxanthine 500 μM, Dexamethasone 1 μM, insulin 10 μg/mL, and rosiglitazone 2 μM) plus serially diluted compounds prepared in DMSO (1:1000 dilution). After incubation for 2 days, media was changed to maintenance media (growth media supplemented with insulin 10 μg/mL) plus serially diluted compounds prepared in DMSO (1:1000 dilution) for around 1 week with media changed every 2 days. Upon completion of the treatment, culture media are discarded and 200 μL 0.01% SDS was added to each well and shaken for 1 hour to lyse the cells. Cell lysates were then transferred to 400 μL Folch's solution (chloroform: methanol=2:1) and mixed well. After centrifuge at 2,000 rpm for 20 min, 200 μL of the lower organic phase was transferred to a plate with 10 μL sample buffer (chloroform:Triton-100=3:1). Samples were blown dried under nitrogen and 200 μL triglyceride (TG) quantification reagent (Thermo Fisher Scientific) was added, mixed, and incubated at 37° C. for 30 min. TG concentration was determined by reading absorbance at 535 nm (Dynex MRX^e Magellan Biosciences) and calculated from standard curve.

A further series deals with Human sebocytes. Put plainly: Proliferation of human sebocytes. The format is cell-based. The following applies: 24 hours, MTT, read-out: AP-Sebo IC50. As to the method: Human sebocytes (Celprogen) and keratinocytes (ATCC) were grown in 96-well culture microplate (Coming) with growth media to around 50% confluency. Media was changed to growth media mixed with serially diluted compounds in DMSO (1:1000 dilution). After treatment for 24 hours, media was changed to 100 μL phenol red free DMEM and cell numbers were quantitated by using Vybrant® MTT Cell Proliferation Assay Kit (Molecular Probes). Ten μL of 12 mM MTT stock solution was added to each well and the microplate was incubated at 37° C. for 4 hours. Then 100 μL of the SDS-HCl solution was added to each well and mixed thoroughly using a pipette. The microplate was incubated at 37° C. for 4 hours in a cell culture incubator. The microplate was mixed again using a pipette and absorbance was read at 570 nm (Dynex MRX^e Magellan Biosciences). Effect of compounds on proliferation of human keratinocytes was calculated by % of DMSO vehicle control.

A short description of series [1]: Plasma protein binding (mouse). The format is in vitro ADME. The note with it: % free, read-out: PPB (h/m) % free, mouse. The method, then: The data in Table 5 were obtained by following the methods disclosed in this application and/or those standard techniques known in the art. ACC enzyme activities were measured according to Biological Examples 1 and 2; Malonyl-CoA in sebocytes were measured according to Biological Example 4; Effect on lipogenesis of 3T3-L1 adipocytes were measured according to Biological Example 7; Effect on lipogenesis of sebocytes were measured according to Biological Example 5; Effect on proliferation of sebocytes were measured according to Biological Example 6; Mouse PK were measured according to Biological Example 10; and Plasma protein binding (human or mouse) were measured by standard technique.

In a further series the target is T1, human ACC1 (Homo sapiens, UniProt Q13085).
T1 construct: purchased BPS Bioscience
In words: Human ACC enzymatic activity assay (ACC1). The format is biochemical. The note with it: purified human ACC1; read-out: EA-CoA hACC 1 IC50. In short, it runs like this:
(§1)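 Purified human ACC1 (0.4 μg/mL) or ACC2 (0.48 μg/mL) was preincubated with compound 10 min at 37° C in HEPES pH 7.5 with 4.0 mM ATP and 15 mM ^13C-NaHCO3. The reaction was started with 5 μM acetyl-CoA, run 1-2 h at 37° C and stopped with TCA. Labelled malonyl-CoA was quantified by LC-MS/MS.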

In the next series the target is T2, human ACC2 (Homo sapiens, UniProt O00763).
T2 construct: purchased BPS Bioscience
T2 sequence (O00763 whole entry): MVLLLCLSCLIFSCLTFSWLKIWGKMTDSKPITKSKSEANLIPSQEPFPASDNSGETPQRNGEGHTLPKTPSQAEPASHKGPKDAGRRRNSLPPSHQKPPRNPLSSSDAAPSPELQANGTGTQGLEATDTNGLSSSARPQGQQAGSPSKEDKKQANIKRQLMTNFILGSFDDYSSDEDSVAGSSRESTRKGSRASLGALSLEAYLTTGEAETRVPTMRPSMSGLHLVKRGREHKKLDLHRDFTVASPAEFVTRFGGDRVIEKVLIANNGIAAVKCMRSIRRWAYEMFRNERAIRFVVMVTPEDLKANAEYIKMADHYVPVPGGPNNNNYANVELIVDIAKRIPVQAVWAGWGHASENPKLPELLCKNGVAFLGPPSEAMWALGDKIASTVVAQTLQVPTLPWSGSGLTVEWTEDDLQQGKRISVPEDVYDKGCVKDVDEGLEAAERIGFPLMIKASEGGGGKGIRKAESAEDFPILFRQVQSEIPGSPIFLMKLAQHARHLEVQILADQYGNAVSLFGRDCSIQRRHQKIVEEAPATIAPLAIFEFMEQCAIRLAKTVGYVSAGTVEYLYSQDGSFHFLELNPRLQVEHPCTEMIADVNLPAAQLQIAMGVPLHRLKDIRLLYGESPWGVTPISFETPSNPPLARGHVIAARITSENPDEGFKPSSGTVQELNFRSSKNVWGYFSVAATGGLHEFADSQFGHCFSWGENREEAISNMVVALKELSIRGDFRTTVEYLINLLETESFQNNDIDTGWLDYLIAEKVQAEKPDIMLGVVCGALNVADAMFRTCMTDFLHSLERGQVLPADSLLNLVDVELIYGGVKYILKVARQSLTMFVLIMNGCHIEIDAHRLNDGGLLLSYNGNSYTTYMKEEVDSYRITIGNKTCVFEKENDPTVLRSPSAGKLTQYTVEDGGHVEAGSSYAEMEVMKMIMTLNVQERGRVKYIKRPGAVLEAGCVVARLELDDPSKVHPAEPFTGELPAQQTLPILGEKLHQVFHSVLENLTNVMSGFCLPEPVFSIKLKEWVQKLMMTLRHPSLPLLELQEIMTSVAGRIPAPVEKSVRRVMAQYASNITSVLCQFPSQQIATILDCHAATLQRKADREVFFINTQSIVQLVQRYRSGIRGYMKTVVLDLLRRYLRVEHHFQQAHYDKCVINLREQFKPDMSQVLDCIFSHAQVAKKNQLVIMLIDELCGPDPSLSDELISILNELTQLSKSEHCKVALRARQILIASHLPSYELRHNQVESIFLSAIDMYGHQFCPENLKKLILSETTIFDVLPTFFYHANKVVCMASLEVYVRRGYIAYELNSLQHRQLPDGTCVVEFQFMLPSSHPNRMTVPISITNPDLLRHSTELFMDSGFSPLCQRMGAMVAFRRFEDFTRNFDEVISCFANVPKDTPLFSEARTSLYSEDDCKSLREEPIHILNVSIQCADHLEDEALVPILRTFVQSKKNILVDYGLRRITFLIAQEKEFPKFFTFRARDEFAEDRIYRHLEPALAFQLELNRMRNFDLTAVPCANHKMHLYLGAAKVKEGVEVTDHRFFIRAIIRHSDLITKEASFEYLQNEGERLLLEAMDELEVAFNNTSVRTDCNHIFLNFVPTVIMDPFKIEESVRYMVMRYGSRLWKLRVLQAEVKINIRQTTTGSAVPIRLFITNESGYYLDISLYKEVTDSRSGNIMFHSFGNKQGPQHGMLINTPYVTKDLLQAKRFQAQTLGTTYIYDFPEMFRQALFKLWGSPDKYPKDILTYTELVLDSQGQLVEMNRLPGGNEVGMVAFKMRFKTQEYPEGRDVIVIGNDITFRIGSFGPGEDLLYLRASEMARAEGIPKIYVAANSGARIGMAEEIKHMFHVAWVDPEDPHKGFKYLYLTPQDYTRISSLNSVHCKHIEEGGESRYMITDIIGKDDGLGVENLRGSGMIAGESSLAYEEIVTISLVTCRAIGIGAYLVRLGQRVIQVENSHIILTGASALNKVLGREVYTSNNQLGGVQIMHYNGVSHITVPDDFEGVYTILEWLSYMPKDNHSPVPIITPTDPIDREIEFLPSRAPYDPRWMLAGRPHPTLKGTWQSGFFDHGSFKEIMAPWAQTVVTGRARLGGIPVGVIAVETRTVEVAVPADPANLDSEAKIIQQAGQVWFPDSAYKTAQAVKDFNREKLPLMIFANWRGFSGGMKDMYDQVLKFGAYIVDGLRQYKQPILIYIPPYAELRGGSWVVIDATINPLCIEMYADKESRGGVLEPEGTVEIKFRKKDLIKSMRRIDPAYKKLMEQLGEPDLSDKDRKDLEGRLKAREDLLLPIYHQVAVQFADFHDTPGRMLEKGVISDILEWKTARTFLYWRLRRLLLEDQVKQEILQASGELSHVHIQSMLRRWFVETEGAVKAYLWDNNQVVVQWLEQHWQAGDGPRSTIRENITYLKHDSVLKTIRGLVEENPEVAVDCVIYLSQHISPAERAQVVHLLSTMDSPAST
In words: Human ACC enzymatic activity assay (ACC2). The format is biochemical. The note with it: purified human ACC2; read-out: EA-CoA hACC 2 IC50. In short, it runs like this:
as §1

pIC50: −log10 of the molar value.

Broadly, the pIC50 is the IC50 on a negative log10 scale, so that one unit is a factor of ten. In the case of `COc1cc(C(=O)N2CCC3(CC2)Cc2ccc(C(C)C)cc2C(=O)O3)nc2c(OC)cccc12` [Example 2, 1′-(4,8-dimethoxyquinoline-2-carbonyl)-7-isopropylspiro[isochroman-3,4′-piperidin]-1-one], the negative-log IC50 (pIC50) with 3T3-L1 adipocytes is 9.10; with Human sebocytes, 7.24. For the same compound, in series [1], the fraction unbound was 0.0028.

Consider `COc1cc(C(=O)N2CCC3(CC2)Cc2ccc(Nc4ccnn4C)cc2C(=O)O3)nc2c(OC)cccc12` [Example 6, 1′-(4,8-dimethoxyquinoline-2-carbonyl)-7-((1-methyl-1H-pyrazol-5-yl)amino)spiro[isochroman-3,4′-piperidin]-1-one], for which the pIC50 is 7.66 in the series with 3T3-L1 adipocytes, 7.44 on human ACC1, 7.51 on human ACC2 and 8.60 with Human sebocytes. Moreover, the fraction unbound in series [1] was determined as 0.0073.

The values are drawn from US12102633B2, “Spirolactone compounds” (Quixgen, Inc., priority 2017, dated 2024).
